The record followed here is patent US7705007B2, “Cis-imidazolines” (Hoffmann-La Roche Inc., priority 2006, dated 2010).

Where a name gives a salt, the structure may show the parent alone.

Chain of interaction between p53 and MDM2 proteins (recombinant GST-tagged MDM2 / p53 peptide) (Q00987 whole entry): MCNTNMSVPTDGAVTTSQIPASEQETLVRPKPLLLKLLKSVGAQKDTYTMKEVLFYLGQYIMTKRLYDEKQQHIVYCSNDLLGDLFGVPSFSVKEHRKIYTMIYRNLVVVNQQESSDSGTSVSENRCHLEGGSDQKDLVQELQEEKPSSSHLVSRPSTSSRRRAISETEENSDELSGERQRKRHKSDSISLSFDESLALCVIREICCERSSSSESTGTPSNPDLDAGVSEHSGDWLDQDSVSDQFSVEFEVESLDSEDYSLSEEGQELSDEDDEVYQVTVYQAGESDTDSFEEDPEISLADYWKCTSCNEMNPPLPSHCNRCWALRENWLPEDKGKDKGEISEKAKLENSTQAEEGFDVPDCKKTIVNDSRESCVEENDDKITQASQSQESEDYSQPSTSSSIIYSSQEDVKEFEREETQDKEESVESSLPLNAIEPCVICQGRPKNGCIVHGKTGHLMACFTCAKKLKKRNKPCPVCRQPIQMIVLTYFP

The experiment has as its target interaction between p53 and MDM2 proteins (recombinant GST-tagged MDM2 / p53 peptide) (Homo sapiens, UniProt Q00987). The experiment in a line: HTRF assay of inhibition of the p53-MDM2 interaction (GST-MDM2 binding to biotinylated p53 peptide). The following applies: 90 nM biotinylated p53 peptide, 160 ng/mL GST-MDM2, 37° C. 1 h. Here is the method: The ability of the compounds to inhibit the interaction between p53 and MDM2 proteins was measured by an HTRF (homogeneous time-resolved fluorescence) assay in which recombinant GST-tagged MDM2 binds to a peptide that resembles the MDM2-interacting region of p53 (Lane et al.). Binding of GST-MDM2 protein and p53-peptide (biotinylated on its N-terminal end) is registered by the FRET (fluorescence resonance energy transfer) between Europium (Eu)-labeled anti-GST antibody and streptavidin-conjugated Allophycocyanin (APC).
Test is performed in black flat-bottom 384-well plates (Costar) in a total volume of 40 uL containing: 90 nM biotinylate peptide, 160 ng/mL GST-MDM2, 20 nM streptavidin-APC (PerkinElmerWallac), 2 nM Eu-labeled anti-GST-antibody (PerkinElmerWallac), 0.2% bovine serum albumin (BSA), 1 mM dithiothreitol (DTT) and 20 mM Tris-borate saline (TBS) buffer as follows: Add 10 uL of GST-MDM2 (640 ng/mL working solution) in reaction buffer to each well. Add 10 uL diluted compounds (1:5 dilution in reaction buffer) to each well, mix by shaking. Add 20 uL biotinylated p53 peptide (180 nM working solution) in reaction buffer to each well and mix on shaker. Incubate at 37° C. for 1 h. Add 20 uL streptavidin-APC and Eu-anti-GST antibody mixture (6 nM Eu-anti-GST and 60 nM streptavidin-APC working solution) in TBS buffer with 0.2% BSA, shake at room temperature for 30 minutes and read using a TRF-capable plate reader at 665 and 615 nm (Victor 5, Perkin ElmerWallac). If not specified, the reagents were purchased from Sigma Chemical Co.
Background: TR-FRET usually uses a lanthanide donor and a delayed reading to cut background.
For `CCOc1nc(C(F)(F)F)ncc1C1=N[C@@H](c2ccc(Cl)cc2)[C@@H](c2ccc(Cl)cc2)N1C(=O)N1CCN(CCS(C)(=O)=O)CC1` (relative stereo) [Example 6, cis-[4,5-Bis-(4-chloro-phenyl)-2-(4-ethoxy-2-trifluoromethyl-pyrimidin-5-yl)-4,5-dihydro-imidazol-1-yl]-[4-(2-methanesulfonyl-ethyl)-piperazin-1-yl]-methanone], the IC50 was 2.89 µM.
In the case of `CCOc1nc(C)ncc1C1=N[C@@H](c2ccc(Cl)cc2)[C@@H](c2ccc(Cl)cc2)N1C(=O)N1CCN(CC(=O)N(C)C)CC1` (relative stereo) [Example 17, cis-2-{4-[4,5-Bis-(4-chloro-phenyl)-2-(4-ethoxy-2-methyl-pyrimidin-5-yl)-4,5-dihydro-imidazole-1-carbonyl]-piperazin-1-yl}-N,N-dimethyl-acetamide] it was 0.677 µM; in that of `CCOc1nc(C(C)(C)C)ncc1C1=N[C@@H](c2ccc(Cl)cc2)[C@@H](c2ccc(Cl)cc2)N1C(=O)N1CCNC(=O)C1` (relative stereo) [Example 20, cis-4-[2-(2-tert-Butyl-4-ethoxy-pyrimidin-5-yl)-4,5-bis-(4-chloro-phenyl)-4,5-dihydro-imidazole-1-carbonyl]-piperazin-2-one hydrochloride], 0.046 µM; in that of `CCOc1ccsc1C1=N[C@@H](c2ccc(Cl)cc2)[C@@H](c2ccc(Cl)cc2)N1C(=O)N1CCN(CC(=O)NC(C)(C)C)CC1` [Example 34, 2-{4-[(4S,5R)-4,5-Bis-(4-chloro-phenyl)-2-(3-ethoxy-thiophen-2-yl)-4,5-dihydro-imidazole-1-carbonyl]-piperazin-1-yl}-N-tert-butyl-acetamide], 0.11 µM.
In the case of `CCOc1ccsc1C1=N[C@@H](c2ccc(Cl)cc2)[C@@H](c2ccc(Cl)cc2)N1C(=O)N1CCN(CC(=O)N(CCOC)CCOC)CC1` [Example 36, 2-{4-[(4S,5R)-4,5-Bis-(4-chloro-phenyl)-2-(3-ethoxy-thiophen-2-yl)-4,5-dihydro-imidazole-1-carbonyl]-piperazin-1-yl}-N,N-bis-(2-methoxy-ethyl)-acetamide] it was 0.054 µM.

As usually defined, the IC50 is the midpoint of a concentration-inhibition curve.
